Measured values reported in patent publication US20250170100A1, “MONOACYLGLYCEROL LIPASE INHIBITORS AND USE THEREOF FOR THE TREATMENT OF ANXIETY AND RELATED CONDITIONS” (Psy Therapeutics, Inc., priority 2021, published 2025).

What was measured:
[1] = Pharmacokinetic study of compounds in mice (brain, oral); format: in vivo, male C57BL/6 mice; details: 5 mg/kg
Method: Healthy male C57BL/6 mice (8-12 weeks old) weighing between 17 to 35 g were procured from Global, India. Temperature and humidity were maintained at 22±3° C. and 30-70%, respectively and illumination was controlled to give a sequence of 12 hr light and 12 hr dark cycle. Temperature and humidity were recorded by auto-controlled data logger system. All the animals were provided laboratory rodent diet. Reverse osmosis water treated with ultraviolet light was provided ad libitum.
Protocol A: Twenty-four male mice were divided into two groups as; Group 1:30 mg/kg/IP, Plasma and brain; Number of animals=12; Animal #1-12. Group 2:30 mg/kg/PO; Plasma and brain; Number of animals=12; Animal #13-24. […] All samples were processed for analysis by protein precipitation using acetonitrile and analyzed with fit-for-purpose LC/MS/MS method (LLOQ-2.02 ng/mL for plasma and 6.06 ng/g for brain). Pharmacokinetic parameters were calculated using the non-compartmental analysis tool of Phoenix WinNonlin®.
Protocol B: Thirty six mice were included into the study and divided in to three groups as Group 1 (n=12), Group 2 (n=12) and Group 3 (n=12) with n=2 mice per time-point design. […] Plasma and brain samples were quantified by fit-for-purpose LC-MS/MS method (LLOQ: 1.01 ng/mL for plasma and 2.02 ng/ml for brain). […]

human recombinant FAAH = human recombinant FAAH (Homo sapiens (Human), UniProt O00519); test: FAAH counter screen (Fatty Acid Amide Hydrolase Inhibitor Screening Assay Kit); format: biochemical; details: Method B: starting concentration of 10 μM
Method: MAGL inhibitor compounds were also counter-screened for FAAH inhibition potency using the following assay. Assessment of FAAH inhibition was performed using Fatty Acid Amide Hydrolase Inhibitor Screening Assay Kit (Cayman Item No. 10005196) following manufacture's instruction with some modifications. The kit utilizes human recombinant FAAH and the fluorescent substrate, AMC Arachidonoyl amide (AAMCA). 5 μL of assay buffer (125 mM Tris, pH 9.0, 1 mM EDTA, i.e. ethylenediaminetetraacetic acid) was added to a 384-well black plate (Corning, 3573). Test compounds and control inhibitor JZL-195 (Cayman Chemical, 13668) were tested in 10-concentration IC50 mode with 3-fold serial dilution at a starting concentration of 100 μM and 10 μM, respectively. 300 nL or 30 nL of test compounds were delivered into a 384-well black plate (Corning, 3573) using a Labcyte Echo, followed by addition of 15 μL of FAAH enzyme (Cayman, 700302) in assay buffer. After a 5-minute pre-incubation at room temperature, 10 μL of AAMCA was added in assay buffer to start the reaction. Final concentration of FAAH enzyme is not specified and AAMCA substrate was used at the 20 μM. After these dilutions, the final concentration of the test compounds ranged from 100 μM to 5.08 nM or 10 μM down to 0.508 nM. The reaction was allowed to progress for 60 minutes, while the plate was read on an Envision plate reader at an Ex/Em of 350/460 nm with readings every minute. The data was analyzed in Microsoft Excel, using the slope between 30 and 59 minutes. The average of the no-enzyme wells (background) was subtracted from the data. The background-subtracted slope data was converted to % activity using the average of wells with enzyme and DMSO vehicle. IC50 values were calculated using GraphPad software (Sigmoidal dose response, variable slope equation).
Compounds listed in Table D2 were tested in the FAAH Counterscreen of Example 19

human MAGL = human MAGL (Homo sapiens (Human), UniProt Q99685); test: MAGL reversible inhibition assay (washout); format: biochemical; details: pre-washout compound concentration: 1 μM
Method: The reversible mechanism of MAGL inhibition of a test compound of Formula (I) can be determined. Flag-tagged MAGL enzyme will be immobilized on anti-Flag beads. Immobilized enzyme will be incubated+/−inhibitor at a dose that produces complete inhibition. Colorimetric substrate (4-NPA) will be added and the reaction monitored on a plate reader for 30 minutes to verify complete inhibition. Immobilized enzyme will then be washed thoroughly to remove the inhibitor, and fresh substrate will be added. The reaction will be monitored for an additional 30 minutes; returning enzymatic activity will indicate reversibility of inhibition.
MAGL enzyme was incubated for 30 minutes in the presence of 40× the IC50 concentration of inhibitor. Enzyme+inhibitor mix was then diluted 40-fold so that the final concentration of the inhibitor equaled the IC50 concentration. Substrate was added and the reaction was monitored for 30 minutes.

[2] = Plasma and brain concentrations after single intraperitoneal administration of Compound 473; format: in vivo, male C57BL/6 mice; details: male, C57BL/6, mouse, IP 20 mg/kg, read-out: Brain/Plasma Ratio (kp) (mean)
Method: (§1) This experiment was performed to determine plasma pharmacokinetics and estimate 2-AG levels in male C57BL/6 mice brain following a single intraperitoneal administration of Compound-473 (Dose: 20 mg/kg).
(§2) Study Design: A total of twelve C57BL/6 male mice were used in this study. Six animals were administered intraperitoneally with solution formulation of PSY-05-00473-002 at 20 mg/kg dose. Six animals were administered vehicle (5% NMP, 5% Solutol HS15 and 90% Normal saline) intraperitoneally at 10 mL/kg dose volume. Blood samples (approximately 60 μL) were collected under light isoflurane anesthesia from a set of six mice at 0.5 h. Plasma was harvested by centrifugation of blood and stored at −70±10° C. until analysis. After blood collection, mice were euthanized by cervical dislocation and brain samples were dissected rapidly and snapped frozen in liquid nitrogen and stored at −80. To homogenize, removed brain samples from the freezer, were divided into two equal hemispheres and weighed while still in frozen condition, and begun homogenization/extraction procedure without allowing the brain samples to thaw. […]
(§3) Analysis: For PK estimation, brain samples were homogenized in 2 volumes of PBS of brain weight. […] Plasma and brain homogenate samples were quantified by fit-for-purpose LC-MS/MS method (LLOQ: 1.02 ng/mL for plasma and 2.03 ng/ml for brain).

2-AG levels in brain = test: 2-AG estimation in mouse brain after single intraperitoneal administration of Compound 473; format: in vivo, male C57BL/6 mice; details: IP 20 mg/kg, 0.5 h
Method: as §1, §2, §3

Sequence of human recombinant FAAH (O00519 whole entry): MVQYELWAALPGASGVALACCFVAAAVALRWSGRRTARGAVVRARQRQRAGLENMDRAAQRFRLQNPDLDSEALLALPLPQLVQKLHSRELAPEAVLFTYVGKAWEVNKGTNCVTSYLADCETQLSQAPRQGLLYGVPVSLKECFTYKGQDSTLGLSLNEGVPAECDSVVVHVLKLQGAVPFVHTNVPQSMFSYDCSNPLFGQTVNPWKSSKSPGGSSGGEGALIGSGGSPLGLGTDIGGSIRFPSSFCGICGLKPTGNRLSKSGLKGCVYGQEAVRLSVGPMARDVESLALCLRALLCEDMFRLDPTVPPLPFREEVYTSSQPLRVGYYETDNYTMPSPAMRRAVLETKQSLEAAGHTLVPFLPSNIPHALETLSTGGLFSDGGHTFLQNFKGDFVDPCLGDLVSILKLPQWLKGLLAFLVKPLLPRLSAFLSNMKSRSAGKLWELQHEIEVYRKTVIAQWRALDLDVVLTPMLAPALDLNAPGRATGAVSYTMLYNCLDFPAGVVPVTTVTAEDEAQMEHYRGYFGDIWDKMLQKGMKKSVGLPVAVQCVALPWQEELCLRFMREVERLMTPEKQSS
Sequence of human MAGL (Q99685 whole entry): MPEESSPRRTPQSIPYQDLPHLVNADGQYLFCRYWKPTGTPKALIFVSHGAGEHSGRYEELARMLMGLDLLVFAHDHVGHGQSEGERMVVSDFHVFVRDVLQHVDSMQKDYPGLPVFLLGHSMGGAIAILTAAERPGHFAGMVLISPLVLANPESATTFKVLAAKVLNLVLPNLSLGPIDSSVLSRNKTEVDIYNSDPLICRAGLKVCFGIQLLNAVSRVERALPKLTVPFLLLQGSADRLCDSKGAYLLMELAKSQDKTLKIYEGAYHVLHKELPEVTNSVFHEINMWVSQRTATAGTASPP

Q: With O=C(c1cc(O)ccc1F)N1CC2(CC(n3cc(C(F)(F)F)c(-c4ccccc4F)n3)C2)C1 [Compound 473, (2-fluoro-5-hydroxyphenyl) {6-[3-(o-fluorophenyl)-4-(trifluoromethyl)-1-pyrazolyl]-2-aza-2-spiro[3.3]heptyl}methanone] as the compound, how does the AUClast [1] read?
A: 464.42 ng·h/mL

Q: What about the Cmax [1] of the same compound?
A: 171.59 ng/g

Q: What about the IC50 (human recombinant FAAH) of the same compound?
A: > 10 µM

Q: And the “A: degree to which MAGL enzymatic activity returned following washout” value (human MAGL)?
A: 41

Q: What about the Kp at 0.5 h [2] of the same compound?
A: 1.44

Q: And the “Mean 2AG Concentration in Brain” value (2-AG levels in brain)?
A: 17.38 nmol/g
